Experimental data published in patent publication US20230331719A1, “Pyrazolopyridine Compounds and Methods of Inhibiting IRE1 Using Same” (OPTIKIRA, LLC, priority 2020, published 2023).

Columns and labels:
IRE1α kinase = IRE1α kinase (Homo sapiens (Human), UniProt O75460); assay: Inhibition of kinase activity of IRE1α (ADP-Glo); assay type: biochemical; conditions: 5 nM IRE1α kinase, 100 µM ATP, 4 hours at room temperature
Procedure: The kinase reactions were performed in 384 well white ProxiPlate-384 Plus plates (PERKIN Elmer 6008280) using 25 mM MOPS assay buffer with 1 mM dithiothreitol, 25 mM MgCl2, 12.5 mM β-glycerophosphate, 5 mM EGTA, and 50 µg/mL BSA. Test compounds were prepared on the day of assay and dispensed using D300 digital dispenser as a 10-point ½ log dilution series in duplicate, normalized to a final DMSO concentration of 3%. Test compounds were pre-incubated for 30 min at room temperature with 10 nM IRE1α kinase (E31-11G from Signal Chem) in 2.5 µL of assay buffer and the reaction started by addition of 2.5 µL of ATP in assay buffer, to give a final ATP concentration of 100 µm and 5 nM IRE1α kinase. After 4 hours incubation at room temperature the reactions were stopped and the kinase activity determined using the ADP-Glo™ reagent from Promega, according to the manufacturer’s instructions. Luminescence was measured on a luminometer (EnVision, PerkinElmer) and IC50 values calculated by fitting a sigmoidal curve to percent inhibition of control versus Log10 of compound concentration.

XBP1 = assay: Cellular XBP1 splicing assay (NanoLuc luciferase reporter); assay type: cell-based; conditions: Homo sapiens; ARPE-19 cells stably expressing XBP1-nano-luciferase; thapsigargin 150 nM, 4 hour incubation
Procedure: ARPE-19 cells stably expressing XBP1 (a.a. 1-376) with nano-luciferase gene sequence linked so it is in frame when XBP1 is spliced, were cultured in F12 media, 10 % FBS, 0.044% sodium bicarbonate, 150 µg/ml hygromycin B and seeded for assays at 5,000 cells in 384 well plates in culture media without hygromycin B and incubated at 37° C./5% CO2. After overnight incubation test compounds were added to the cell plate in a 10-point ½ log dilution series in duplicate (final DMSO concentration 0.117 %). After further incubation of 30 minutes thapsigargin was added (final concentration 150 nM) and then another 4 hour incubation. A NanoLuc luciferase assay (Promega) was used according to the manufacturer’s instructions to detect the luciferase and luminescence measured on a luminometer (EnVision, PerkinElmer). IC50 values calculated by fitting a sigmoidal curve to percent inhibition of control of compound concentration.

IRE1α RNase = IRE1α RNase (Homo sapiens (Human), UniProt O75460); assay: Inhibition of RNase activity of IRE1α; assay type: biochemical; conditions: 0.325 nM enzyme, 100 nM substrate, 20 minutes at room temperature
Chain of IRE1α RNase (O75460 468-977): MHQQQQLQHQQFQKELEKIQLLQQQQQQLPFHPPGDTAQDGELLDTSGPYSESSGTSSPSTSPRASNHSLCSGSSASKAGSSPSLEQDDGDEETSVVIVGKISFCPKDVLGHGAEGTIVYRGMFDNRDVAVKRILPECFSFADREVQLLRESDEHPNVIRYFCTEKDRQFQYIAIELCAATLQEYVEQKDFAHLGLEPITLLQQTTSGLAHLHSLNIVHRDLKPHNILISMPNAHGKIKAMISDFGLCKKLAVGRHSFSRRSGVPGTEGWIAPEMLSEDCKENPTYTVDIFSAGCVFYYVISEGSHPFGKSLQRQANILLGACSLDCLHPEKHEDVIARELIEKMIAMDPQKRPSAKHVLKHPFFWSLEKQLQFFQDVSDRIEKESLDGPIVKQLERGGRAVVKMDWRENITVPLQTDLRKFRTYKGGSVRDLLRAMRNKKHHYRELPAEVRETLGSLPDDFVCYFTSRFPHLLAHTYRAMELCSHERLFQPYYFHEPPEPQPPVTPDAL
Procedure: The RNase reactions were performed in 384 well black ProxiPlate-384 Plus plates (PERKIN Elmer) using 50 mM Tris assay buffer with 0.5 mM MgCl2, 10 mM KCl, 0.03 % Tween, 2 mM DTT and 1% DMSO. Test compounds were prepared on the day of assay and dispensed using D300 digital dispenser as a 10-point ½ log dilution series in duplicate, normalized to a final DMSO concentration of […]. Test compounds were pre-incubated for 30 min at room temperature with IRE1α kinase (E31-11G from Signal Chem) in 2.5 µL of assay buffer. Then 2.5 µl of assay buffer containing substrate (5′ Alexa Fluor 647 - rCrArUrGrUrC rCrGrCrArGrCrGrCrArUrG - Iowa Black RQ quencher 3′) (SEQ ID NO:1) added, giving a final concentration of enzyme of 0.325 nM and of substrate of 100 nM. After 20 minutes incubation at room temperature the reactions were stopped by added 5 µL of 5 M urea, incubated at room temperature for 10 minutes and fluorescence measured on a plate reader (EnVision, PerkinElmer). IC50 values calculated by fitting a sigmoidal curve to percent inhibition of control versus compound concentration.

Chain of IRE1α kinase (O75460 468-977): as above

Cc1ccc(F)c(S(=O)(=O)Nc2cc(F)c(-c3nn(C(C)C)c4c3c(N)ncc4[C@H]3CC[C@H](NC[C@H](C)F)CC3)cc2F)c1 [Compound A23, N-(4-(4-amino-7-((1S,4r)-4-(((S)-2-fluoropropyl)amino)cyclohexyl)-1-isopropyl-1H-pyrazolo[4,3-c]pyridin-3-yl)-2,5-difluorophenyl)-2-fluoro-5-methylbenzenesulfonamide]
IC50 (IRE1α kinase): 1.3 nM

CC(C)n1nc(-c2cc(F)c(NS(=O)(=O)c3cc(F)ccc3F)cc2F)c2c(N)ncc([C@H]3CC[C@H](N4CCOCC4)CC3)c21 [Compound A16, N-(4-(4-amino-1-isopropyl-7-((1r,4r)-4-morpholinocyclohexyl)-1H-pyrazolo[4,3-c]pyridin-3-yl)-2,5-difluorophenyl)-2,5-difluorobenzenesulfonamide]
IC50 (XBP1): 26.9 nM

COCCN[C@H]1CC[C@H](c2cnc(N)c3c(-c4cc(F)c(NS(=O)(=O)c5cc(C)ccc5Cl)cc4F)nn(C(C)C)c32)CC1 [Compound A4, N-(4-(4-amino-1-isopropyl-7-((1r,4r)-4-((2-methoxyethyl)amino)cyclohexyl)-1H-pyrazolo[4,3-c]pyridin-3-yl)-2,5-difluorophenyl)-2-chloro-5-methylbenzenesulfonamide]
IC50 (XBP1): 3.3 nM
IC50 (IRE1α RNase): 2.8 nM

CC(C)n1nc(-c2cc(F)c(NS(=O)(=O)c3cc(Cl)ccc3Cl)cc2F)c2c(N)ncc([C@H]3CC[C@H](N4CCOCC4)CC3)c21 [Compound A10, N-(4-(4-amino-1-isopropyl-7-((1r,4r)-4-morpholinocyclohexyl)-1H-pyrazolo[4,3-c]pyridin-3-yl)-2,5-difluorophenyl)-2,5-dichlorobenzenesulfonamide]
IC50 (XBP1): 4.6 nM
IC50 (IRE1α RNase): 3.3 nM
IC50 (IRE1α kinase): 1.6 nM

CC(C)n1nc(-c2cc(F)c(NS(=O)(=O)c3cc(Cl)ccc3F)cc2F)c2c(N)ncc([C@H]3CC[C@H](N4CCOCC4)CC3)c21 [Compound A20, N-(4-(4-amino-1-isopropyl-7-((1r,4r)-4-morpholinocyclohexyl)-1H-pyrazolo[4,3-c]pyridin-3-yl)-2,5-difluorophenyl)-5-chloro-2-fluorobenzenesulfonamide]
IC50 (XBP1): 10.3 nM
IC50 (IRE1α RNase): 3.5 nM
IC50 (IRE1α kinase): 2.3 nM

COCCN[C@H]1CC[C@H](c2cnc(N)c3c(-c4cc(F)c(NS(=O)(=O)c5cc(OC(F)F)ccc5Cl)cc4F)nn(C(C)C)c32)CC1 [Compound A1, N-(4-(4-amino-1-isopropyl-7-((1r,4r)-4-((2-methoxyethyl)amino)cyclohexyl)-1H-pyrazolo[4,3-c]pyridin-3-yl)-2,5-difluorophenyl)-2-chloro-5-(difluoromethoxy)benzenesulfonamide]
IC50 (XBP1): 14.5 nM
IC50 (IRE1α RNase): 2.7 nM

Cc1ccc(F)c(S(=O)(=O)Nc2cc(F)c(-c3nn(C(C)C)c4c3c(N)ncc4[C@H]3CC[C@H](NC[C@@H](C)F)CC3)cc2F)c1 [Compound A24, N-(4-(4-amino-7-((1R,4r)-4-(((R)-2-fluoropropyl)amino)cyclohexyl)-1-isopropyl-1H-pyrazolo[4,3-c]pyridin-3-yl)-2,5-difluorophenyl)-2-fluoro-5-methylbenzenesulfonamide]
IC50 (IRE1α kinase): 0.893 nM

CCOc1ccc(F)c(S(=O)(=O)Nc2cc(F)c(-c3nn(C(C)C)c4c3c(N)ncc4[C@H]3CC[C@H](NCC(C)(C)OC)CC3)cc2F)c1 [Compound A6, N-(4-(4-amino-1-isopropyl-7-((1r,4r)-4-((2-methoxy-2-methylpropyl)amino)cyclohexyl)-1H-pyrazolo[4,3-c]pyridin-3-yl)-2,5-difluorophenyl)-5-ethoxy-2-fluorobenzenesulfonamide]
IC50 (XBP1): 6.7 nM

COCCN[C@H]1CC[C@H](c2cnc(N)c3c(-c4cc(F)c(NS(=O)(=O)c5cc(OC(F)(F)F)ccc5Cl)cc4F)nn(C(C)C)c32)CC1 [Compound A3, N-(4-(4-amino-1-isopropyl-7-((1r,4r)-4-((2-methoxyethyl)amino)cyclohexyl)-1H-pyrazolo[4,3-c]pyridin-3-yl)-2,5-difluorophenyl)-2-chloro-5-(trifluoromethoxy)benzenesulfonamide]
IC50 (XBP1): 15 nM
IC50 (IRE1α RNase): 3.4 nM

CCOc1ccc(F)c(S(=O)(=O)Nc2cc(F)c(-c3nn(C(C)C)c4c3c(N)ncc4[C@H]3CC[C@H](NC4CC(F)(F)C4)CC3)cc2F)c1 [Compound A7, N-(4-(4-amino-7-((1r,4r)-4-((3,3-difluorocyclobutyl)amino)cyclohexyl)-1-isopropyl-1H-pyrazolo[4,3-c]pyridin-3-yl)-2,5-difluorophenyl)-5-ethoxy-2-fluorobenzenesulfonamide]
IC50 (XBP1): 6.1 nM

CC(C)n1nc(-c2cc(F)c(NS(=O)(=O)Cc3ccccc3Cl)cc2F)c2c(N)ncc([C@H]3CC[C@H](N4CCOCC4)CC3)c21 [Compound A19, N-(4-(4-amino-1-isopropyl-7-((1r,4r)-4-morpholinocyclohexyl)-1H-pyrazolo[4,3-c]pyridin-3-yl)-2,5-difluorophenyl)-1-(2-chlorophenyl)methanesulfonamide]
IC50 (XBP1): 11.1 nM

CC(C)n1nc(-c2cc(F)c(NS(=O)(=O)c3ccccc3F)cc2F)c2c(N)ncc([C@H]3CC[C@@H](N4CCOCC4)CC3)c21 [Compound A14, N-(4-(4-amino-1-isopropyl-7-((1s,4s)-4-morpholinocyclohexyl)-1H-pyrazolo[4,3-c]pyridin-3-yl)-2,5-difluorophenyl)-2-fluorobenzenesulfonamide]
IC50 (XBP1): 1650 nM
IC50 (IRE1α RNase): 466 nM

CC(C)n1nc(-c2cc(F)c(NS(=O)(=O)c3ccccc3F)cc2F)c2c(N)ncc([C@H]3CC[C@H](NCCOC(F)(F)F)CC3)c21 [Compound A8, N-(4-(4-amino-1-isopropyl-7-((1r,4r)-4-((2-(trifluoromethoxy)ethyl)amino)cyclohexyl)-1H-pyrazolo[4,3-c]pyridin-3-yl)-2,5-difluorophenyl)-2-fluorobenzenesulfonamide]
IC50 (XBP1): 39.3 nM
IC50 (IRE1α RNase): 17.9 nM

COCCN[C@H]1CC[C@H](c2cnc(N)c3c(-c4cc(F)c(NS(=O)(=O)c5cc(C)ccc5F)cc4F)nn(C(C)C)c32)CC1 [Compound A5, N-(4-(4-amino-1-isopropyl-7-((1r,4r)-4-((2-methoxyethyl)amino)cyclohexyl)-1H-pyrazolo[4,3-c]pyridin-3-yl)-2,5-difluorophenyl)-2-fluoro-5-methylbenzenesulfonamide]
IC50 (XBP1): 6.8 nM
IC50 (IRE1α RNase): 3.1 nM

CCOc1ccc(F)c(S(=O)(=O)Nc2cc(F)c(-c3nn(C(C)C)c4c3c(N)ncc4[C@H]3CC[C@H](NCC(C)F)CC3)cc2F)c1 (stereo partly shown) [Compound A9, N-(4-(4-amino-7-((1r,4r)-4-((2-fluoropropyl)amino)cyclohexyl)-1-isopropyl-1H-pyrazolo[4,3-c]pyridin-3-yl)-2,5-difluorophenyl)-5-ethoxy-2-fluorobenzenesulfonamide]
IC50 (XBP1): 7.5 nM

CCOc1ccc(F)c(S(=O)(=O)Nc2cc(F)c(-c3nn(C(C)C)c4c3c(N)ncc4[C@H]3CC[C@H](N4CCOCC4)CC3)cc2F)c1 [Compound A15, N-(4-(4-amino-1-isopropyl-7-((1r,4r)-4-morpholinocyclohexyl)-1H-pyrazolo[4,3-c]pyridin-3-yl)-2,5-difluorophenyl)-5-ethoxy-2-fluorobenzenesulfonamide]
IC50 (XBP1): 7.2 nM

[2H]C([2H])([2H])Oc1ccc(F)c(S(=O)(=O)Nc2cc(F)c(-c3nn(C(C)C)c4c3c(N)ncc4[C@H]3CC[C@H](NCCOC)CC3)cc2F)c1 [Compound A2, N-(4-(4-amino-1-isopropyl-7-((1r,4r)-4-((2-methoxyethyl)amino)cyclohexyl)-1H-pyrazolo[4,3-c]pyridin-3-yl)-2,5-difluorophenyl)-2-fluoro-5-(methoxy-d3)benzenesulfonamide]
IC50 (XBP1): 12.2 nM
IC50 (IRE1α RNase): 4.8 nM
